Read-outs that look alike come from different tables or passages of the source.
Key:
Ikaros = biological target: T1, Ikaros (Homo sapiens, UniProt Q13422); assay: Helios Cellular Degradation Assay, Ikaros readout (flow cytometry, Ikaros-Alexa488 antibody staining, 72 h); format: cell-based; conditions: for Dmax: Jurkat, read-out: Ikaros Dmax
T1 construct: fluorescently labelled antibodies against Helios and Ikaros; endogenous in cells; host or cells: Jurkat cells
In short: (§1)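 Flow cytometry of fixed, permeabilized Jurkat cells stained with anti-Helios-PE and anti-Ikaros-Alexa488 (1 h, room temperature) measured remaining protein. Treatment lasted 72 h at 37 °C, 5% CO2, at 80,000 cells/well in RPMI with 10% FBS.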

Helios = biological target: T2, Helios (Homo sapiens, UniProt Q96SW2+Q9UKS7); assay: Helios Cellular Degradation Assay (flow cytometry, Helios-PE antibody staining, 72 h); format: cell-based; conditions: for Dmax: Jurkat, read-out: Helios Dmax
T2 construct: fluorescently labelled antibodies against Helios and Ikaros; endogenous in cells; host or cells: Jurkat cells
In short: as §1

[1] = Jurkat cells, 72 h incubation, flow cytometry

T1 sequence (Q96SW2 whole entry partner): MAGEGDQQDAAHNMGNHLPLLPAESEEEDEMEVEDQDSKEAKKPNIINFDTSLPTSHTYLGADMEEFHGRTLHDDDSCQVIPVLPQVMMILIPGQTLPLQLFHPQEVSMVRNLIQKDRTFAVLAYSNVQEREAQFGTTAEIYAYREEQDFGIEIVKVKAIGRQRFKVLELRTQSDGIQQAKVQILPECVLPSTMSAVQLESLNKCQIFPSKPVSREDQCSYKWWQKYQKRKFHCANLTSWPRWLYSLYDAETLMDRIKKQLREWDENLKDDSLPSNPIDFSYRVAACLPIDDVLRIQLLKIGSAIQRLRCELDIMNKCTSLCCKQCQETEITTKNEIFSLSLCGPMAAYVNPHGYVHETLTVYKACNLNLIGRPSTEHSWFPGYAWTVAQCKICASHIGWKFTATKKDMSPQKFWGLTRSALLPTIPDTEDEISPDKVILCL
T1 sequence (Q16531 whole entry partner): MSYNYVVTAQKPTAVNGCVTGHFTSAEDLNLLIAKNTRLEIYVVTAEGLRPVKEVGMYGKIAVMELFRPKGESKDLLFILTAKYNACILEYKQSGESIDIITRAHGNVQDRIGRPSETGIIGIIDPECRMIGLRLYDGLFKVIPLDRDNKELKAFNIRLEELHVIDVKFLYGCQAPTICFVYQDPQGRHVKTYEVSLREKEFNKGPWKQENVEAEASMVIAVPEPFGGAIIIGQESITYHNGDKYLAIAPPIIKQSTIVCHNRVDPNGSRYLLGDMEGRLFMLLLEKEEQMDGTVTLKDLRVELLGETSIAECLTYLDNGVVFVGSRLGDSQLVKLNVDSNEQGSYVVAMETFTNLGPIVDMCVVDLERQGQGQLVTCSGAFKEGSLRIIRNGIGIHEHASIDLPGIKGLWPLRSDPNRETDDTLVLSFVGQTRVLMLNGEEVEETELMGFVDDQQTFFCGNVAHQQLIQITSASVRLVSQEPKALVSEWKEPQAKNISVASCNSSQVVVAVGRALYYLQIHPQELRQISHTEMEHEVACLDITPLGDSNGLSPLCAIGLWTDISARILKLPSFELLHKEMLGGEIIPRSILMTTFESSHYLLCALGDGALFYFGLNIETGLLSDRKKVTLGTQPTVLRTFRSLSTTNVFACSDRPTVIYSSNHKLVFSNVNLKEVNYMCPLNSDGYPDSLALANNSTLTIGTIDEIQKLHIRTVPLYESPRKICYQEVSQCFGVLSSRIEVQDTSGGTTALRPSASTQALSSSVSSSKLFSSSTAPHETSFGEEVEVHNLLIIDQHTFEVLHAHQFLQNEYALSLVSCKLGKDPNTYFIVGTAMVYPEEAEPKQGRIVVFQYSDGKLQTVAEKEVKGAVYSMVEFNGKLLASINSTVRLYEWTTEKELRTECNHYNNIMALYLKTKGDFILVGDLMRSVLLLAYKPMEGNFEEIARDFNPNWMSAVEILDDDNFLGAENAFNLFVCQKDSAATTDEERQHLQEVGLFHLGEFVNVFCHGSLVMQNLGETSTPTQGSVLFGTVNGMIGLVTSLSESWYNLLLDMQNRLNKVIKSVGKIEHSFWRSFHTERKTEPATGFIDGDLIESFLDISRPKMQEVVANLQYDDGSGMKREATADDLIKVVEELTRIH
T1 sequence (Q13422 whole entry): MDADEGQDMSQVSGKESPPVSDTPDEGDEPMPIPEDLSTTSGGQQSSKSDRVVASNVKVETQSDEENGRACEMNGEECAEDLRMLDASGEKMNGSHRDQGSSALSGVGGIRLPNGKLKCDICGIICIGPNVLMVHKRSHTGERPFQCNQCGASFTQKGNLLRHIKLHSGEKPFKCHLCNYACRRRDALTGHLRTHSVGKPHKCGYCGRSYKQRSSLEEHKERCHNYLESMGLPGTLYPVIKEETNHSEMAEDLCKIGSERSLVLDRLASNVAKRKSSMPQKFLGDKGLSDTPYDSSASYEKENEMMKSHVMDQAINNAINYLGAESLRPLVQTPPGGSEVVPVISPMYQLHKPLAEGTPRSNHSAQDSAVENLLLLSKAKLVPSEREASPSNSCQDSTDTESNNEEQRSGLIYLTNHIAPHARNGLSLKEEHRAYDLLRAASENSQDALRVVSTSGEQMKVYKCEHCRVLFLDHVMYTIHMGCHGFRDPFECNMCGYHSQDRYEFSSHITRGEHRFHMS
T2 sequence (Q9UKS7 whole entry): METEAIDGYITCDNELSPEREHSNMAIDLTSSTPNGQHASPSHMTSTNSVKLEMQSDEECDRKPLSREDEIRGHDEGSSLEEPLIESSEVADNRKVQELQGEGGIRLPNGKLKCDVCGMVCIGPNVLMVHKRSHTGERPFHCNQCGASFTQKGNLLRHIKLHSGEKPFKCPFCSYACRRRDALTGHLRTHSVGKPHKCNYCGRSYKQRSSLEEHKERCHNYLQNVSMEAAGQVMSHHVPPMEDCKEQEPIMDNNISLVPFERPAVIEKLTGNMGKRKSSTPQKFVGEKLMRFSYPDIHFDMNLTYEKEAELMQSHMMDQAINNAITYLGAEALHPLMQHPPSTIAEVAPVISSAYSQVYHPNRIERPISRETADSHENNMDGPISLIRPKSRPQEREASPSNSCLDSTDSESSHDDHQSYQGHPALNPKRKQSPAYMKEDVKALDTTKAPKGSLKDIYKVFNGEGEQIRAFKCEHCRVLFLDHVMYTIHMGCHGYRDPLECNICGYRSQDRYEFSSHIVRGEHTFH
T2 sequence (Q96SW2 whole entry): as the sequence (Q96SW2 whole entry partner) above
T2 sequence (Q16531 whole entry partner): as the sequence (Q16531 whole entry partner) above

CC(C)OC1CN(Cc2ccnc(-c3ccc4c(c3)CN(C3CCC(=O)NC3=O)C4=O)c2)C1 (centres unmarked) [Example 130, 3-(5-(4-((3-isopropoxyazetidin-1-yl)methyl)pyridin-2-yl)-1-oxoisoindolin-2-yl)piperidine-2,6-dione]
DC50 (Ikaros; [1]): > 10 µM | Dmax (Ikaros; [1]): 13% | DC50 (Helios; [1]): 0.244 µM | Dmax (Helios; [1]): 56%

O=C1CCC(N2Cc3cc(-c4cc(CN[C@H](CCO)c5ccccc5)ccn4)ccc3C2=O)C(=O)N1 (stereo partly drawn) [Example 131, 3-(5-(4-((((R)-3-hydroxy-1-phenylpropyl)amino)methyl)pyridin-2-yl)-1-oxoisoindolin-2-yl)piperidine-2,6-dione]
DC50 (Ikaros; [1]): > 10 µM | Dmax (Ikaros; [1]): 9% | DC50 (Helios; [1]): 0.014 µM | Dmax (Helios; [1]): 83%

Cc1ccc(S(=O)(=O)C2CCN(Cc3ccnc(-c4ccc5c(c4)CN(C4CCC(=O)NC4=O)C5=O)c3)CC2)cc1 (centres unmarked) [Example 132, 3-(1-oxo-5-(4-((4-tosylpiperidin-1-yl)methyl)pyridin-2-yl)isoindolin-2-yl)piperidine-2,6-dione]
DC50 (Ikaros; [1]): > 10 µM | Dmax (Ikaros; [1]): 13% | DC50 (Helios; [1]): > 10 µM | Dmax (Helios; [1]): 28%

O=C1CCC(N2Cc3cc(-c4cc(CN5CCC[C@H]5c5ccccc5)ccn4)ccc3C2=O)C(=O)N1 (stereo partly drawn) [Example 133, 3-(1-oxo-5-(4-(((S)-2-phenylpyrrolidin-1-yl)methyl)pyridin-2-yl)isoindolin-2-yl)piperidine-2,6-dione]
DC50 (Ikaros; [1]): > 10 µM | Dmax (Ikaros; [1]): 7% | DC50 (Helios; [1]): 0.075 µM | Dmax (Helios; [1]): 84%

O=C1CCC(N2Cc3cc(-c4cc(CN5CCC[C@@H]5c5ccccc5)ccn4)ccc3C2=O)C(=O)N1 (stereo partly drawn) [Example 134, 3-(1-oxo-5-(4-(((R)-2-phenylpyrrolidin-1-yl)methyl)pyridin-2-yl)isoindolin-2-yl)piperidine-2,6-dione]
DC50 (Ikaros; [1]): > 10 µM | Dmax (Ikaros; [1]): 19% | DC50 (Helios; [1]): 0.016 µM | Dmax (Helios; [1]): 95%

O=C1CCC(N2Cc3cc(-c4cc(CN5CCC[C@@H](c6ccccc6)C5)ccn4)ccc3C2=O)C(=O)N1 (stereo partly drawn) [Example 135, 3-(1-oxo-5-(4-(((S)-3-phenylpiperidin-1-yl)methyl)pyridin-2-yl)isoindolin-2-yl)piperidine-2,6-dione]
DC50 (Ikaros; [1]): > 10 µM | Dmax (Ikaros; [1]): 4% | DC50 (Helios; [1]): 1.31 µM | Dmax (Helios; [1]): 60%

C[C@@H](c1ccccc1)N(C)Cc1ccnc(-c2ccc3c(c2)CN(C2CCC(=O)NC2=O)C3=O)c1 (stereo partly drawn) [Example 136, 3-(5-(4-((methyl((S)-1-phenylethyl)amino)methyl)pyridin-2-yl)-1-oxoisoindolin-2-yl)piperidine-2,6-dione]
DC50 (Ikaros; [1]): > 10 µM | Dmax (Ikaros; [1]): 0% | DC50 (Helios; [1]): 0.084 µM | Dmax (Helios; [1]): 62%

C[C@H](c1ccccc1)N(C)Cc1ccnc(-c2ccc3c(c2)CN(C2CCC(=O)NC2=O)C3=O)c1 (stereo partly drawn) [Example 137, 3-(5-(4-((methyl((R)-1-phenylethyl)amino)methyl)pyridin-2-yl)-1-oxoisoindolin-2-yl)piperidine-2,6-dione]
DC50 (Ikaros; [1]): > 10 µM | Dmax (Ikaros; [1]): 8% | DC50 (Helios; [1]): 0.098 µM | Dmax (Helios; [1]): 67%

O=C1CCC(N2Cc3cc(-c4cc(CN5CC[C@H](c6ccccc6)C5)ccn4)ccc3C2=O)C(=O)N1 (stereo partly drawn) [Example 138, 3-(1-oxo-5-(4-(((R)-3-phenylpyrrolidin-1-yl)methyl)pyridin-2-yl)isoindolin-2-yl)piperidine-2,6-dione]
DC50 (Ikaros; [1]): > 10 µM | Dmax (Ikaros; [1]): 18% | DC50 (Helios; [1]): 0.037 µM | Dmax (Helios; [1]): 82%

O=C1CCC(N2Cc3cc(-c4cc(CN5CC[C@@H](c6ccccc6)C5)ccn4)ccc3C2=O)C(=O)N1 (stereo partly drawn) [Example 139, 3-(1-oxo-5-(4-(((S)-3-phenylpyrrolidin-1-yl)methyl)pyridin-2-yl)isoindolin-2-yl)piperidine-2,6-dione]
DC50 (Ikaros; [1]): > 10 µM | Dmax (Ikaros; [1]): 3% | DC50 (Helios; [1]): 0.025 µM | Dmax (Helios; [1]): 91%

CN[C@@H]1CCCC[C@H]1N(C)Cc1ccnc(-c2ccc3c(c2)CN(C2CCC(=O)NC2=O)C3=O)c1 (stereo partly drawn) [Example 140, 3-(5-(4-((methyl((1R,2R)-2-(methylamino)cyclohexyl)amino)methyl)pyridin-2-yl)-1-oxoisoindolin-2-yl)piperidine-2,6-dione]
DC50 (Ikaros; [1]): > 10 µM | Dmax (Ikaros; [1]): 22% | DC50 (Helios; [1]): 0.012 µM | Dmax (Helios; [1]): 76%

O=C1CCC(N2Cc3cc(-c4cc(CN5CCC(c6ccccc6)CC5)ccn4)ccc3C2=O)C(=O)N1 (centres unmarked) [Example 141, 3-(1-oxo-5-(4-((4-phenylpiperidin-1-yl)methyl)pyridin-2-yl)isoindolin-2-yl)piperidine-2,6-dione]
DC50 (Ikaros; [1]): > 10 µM | Dmax (Ikaros; [1]): 20% | DC50 (Helios; [1]): 0.046 µM | Dmax (Helios; [1]): 82%

CN(Cc1ccnc(-c2ccc3c(c2)CN(C2CCC(=O)NC2=O)C3=O)c1)C(C)(C)c1ccccc1 (centres unmarked) [Example 142, 3-(5-(4-((methyl(2-phenylpropan-2-yl)amino)methyl)pyridin-2-yl)-1-oxoisoindolin-2-yl)piperidine-2,6-dione]
DC50 (Ikaros; [1]): 0.897 µM | Dmax (Ikaros; [1]): 52% | DC50 (Helios; [1]): 0.088 µM | Dmax (Helios; [1]): 83%

O=C1CCC(N2Cc3cc(-c4cc(CN5CCCC(c6ccccc6)C5)ccn4)ccc3C2=O)C(=O)N1 (centres unmarked) [Example 143, 3-(1-oxo-5-(4-((3-phenylpiperidin-1-yl)methyl)pyridin-2-yl)isoindolin-2-yl)piperidine-2,6-dione]
DC50 (Ikaros; [1]): > 10 µM | Dmax (Ikaros; [1]): 1% | DC50 (Helios; [1]): 0.04 µM | Dmax (Helios; [1]): 62%

NCc1ccnc(-c2ccc3c(c2)CN(C2CCC(=O)NC2=O)C3=O)c1 (centres unmarked) [Example 144, 3-{5-[4-(Aminomethyl)pyridin-2-yl]-1-oxo-2,3-dihydro-1H-isoindol-2-yl}piperidine-2,6-dione]
DC50 (Ikaros; [1]): > 10 µM | Dmax (Ikaros; [1]): 11% | DC50 (Helios; [1]): 2.02 µM | Dmax (Helios; [1]): 57%

CNCc1ccnc(-c2ccc3c(c2)CN(C2CCC(=O)NC2=O)C3=O)c1 (centres unmarked) [Example 145, 3-(5-{4-[(Methylamino)methyl]pyridin-2-yl}-1-oxo-2,3-dihydro-1H-isoindol-2-yl) piperidine-2,6-dione]
DC50 (Ikaros; [1]): > 10 µM | Dmax (Ikaros; [1]): 11% | DC50 (Helios; [1]): 0.067 µM | Dmax (Helios; [1]): 93%

CN(Cc1ccc(S(=O)(=O)N(C)C)cc1)Cc1ccnc(-c2ccc3c(c2)CN(C2CCC(=O)NC2=O)C3=O)c1 (centres unmarked) [Example 146, 4-{[({2-[2-(2,6-Dioxopiperidin-3-yl)-1-oxo-2,3-dihydro-1H-isoindol-5-yl]pyridin-4-yl}methyl)(methyl)amino]methyl}-N,N-dimethylbenzene-1-sulfonamide]
DC50 (Ikaros; [1]): > 10 µM | Dmax (Ikaros; [1]): 5% | DC50 (Helios; [1]): > 10 µM | Dmax (Helios; [1]): 3%

CN(Cc1ccc(F)cc1)Cc1ccnc(-c2ccc3c(c2)CN(C2CCC(=O)NC2=O)C3=O)c1 (centres unmarked) [Example 147, 3-(5-(4-(((4-fluorobenzyl)(methyl)amino)methyl)pyridin-2-yl)-1-oxoisoindolin-2-yl)piperidine-2,6-dione]
DC50 (Ikaros; [1]): > 10 µM | Dmax (Ikaros; [1]): 4% | DC50 (Helios; [1]): 0.226 µM | Dmax (Helios; [1]): 74%

CN(Cc1cccc(C(F)(F)F)c1)Cc1ccnc(-c2ccc3c(c2)CN(C2CCC(=O)NC2=O)C3=O)c1 (centres unmarked) [Example 148, 3-(5-(4-((methyl(3-(trifluoromethyl)benzyl)amino)methyl)pyridin-2-yl)-1-oxoisoindolin-2-yl)piperidine-2,6-dione]
DC50 (Ikaros; [1]): > 10 µM | Dmax (Ikaros): 9% | DC50 (Helios; [1]): 0.238 µM | Dmax (Helios): 75%

CN(Cc1ccc(C(F)(F)F)cc1)Cc1ccnc(-c2ccc3c(c2)CN(C2CCC(=O)NC2=O)C3=O)c1 (centres unmarked) [Example 149, 3-(5-(4-((methyl(4-(trifluoromethyl)benzyl)amino)methyl)pyridin-2-yl)-1-oxoisoindolin-2-yl)piperidine-2,6-dione]
DC50 (Ikaros; [1]): > 10 µM | Dmax (Ikaros; [1]): 6% | DC50 (Helios; [1]): > 10 µM | Dmax (Helios; [1]): 17%

CN(Cc1ccc(C#N)cc1)Cc1ccnc(-c2ccc3c(c2)CN(C2CCC(=O)NC2=O)C3=O)c1 (centres unmarked) [Example 150, 4-((((2-(2-(2,6-dioxopiperidin-3-yl)-1-oxoisoindolin-5-yl)pyridin-4-yl)methyl)(methyl)amino)methyl)benzonitrile]
DC50 (Ikaros; [1]): > 10 µM | Dmax (Ikaros; [1]): 17% | DC50 (Helios; [1]): > 10 µM | Dmax (Helios; [1]): 45%

CN(Cc1ccc([N+](=O)[O-])cc1)Cc1ccnc(-c2ccc3c(c2)CN(C2CCC(=O)NC2=O)C3=O)c1 (centres unmarked) [Example 151, 3-(5-(4-((methyl(4-nitrobenzyl)amino)methyl)pyridin-2-yl)-1-oxoisoindolin-2-yl)piperidine-2,6-dione]
DC50 (Ikaros; [1]): > 10 µM | Dmax (Ikaros; [1]): 1% | DC50 (Helios; [1]): > 10 µM | Dmax (Helios; [1]): 23%

CN(Cc1ccnc(-c2ccc3c(c2)CN(C2CCC(=O)NC2=O)C3=O)c1)Cc1ccc(F)c(F)c1 (centres unmarked) [Example 152, 3-(5-(4-(((3,4-difluorobenzyl)(methyl)amino)methyl)pyridin-2-yl)-1-oxoisoindolin-2-yl)piperidine-2,6-dione]
DC50 (Ikaros; [1]): > 10 µM | Dmax (Ikaros; [1]): 7% | DC50 (Helios; [1]): 0.85 µM | Dmax (Helios; [1]): 55%

COC(=O)c1ccc(CN(C)Cc2ccnc(-c3ccc4c(c3)CN(C3CCC(=O)NC3=O)C4=O)c2)cc1 (centres unmarked) [Example 153, methyl 4-((((2-(2-(2,6-dioxopiperidin-3-yl)-1-oxoisoindolin-5-yl)pyridin-4-yl)methyl)(methyl)amino)methyl)benzoate]
DC50 (Ikaros; [1]): > 10 µM | Dmax (Ikaros; [1]): 7% | DC50 (Helios; [1]): 4.71 µM | Dmax (Helios; [1]): 58%

CN(Cc1ccc(Cl)cc1)Cc1ccnc(-c2ccc3c(c2)CN(C2CCC(=O)NC2=O)C3=O)c1 (centres unmarked) [Example 154, 3-(5-(4-(((4-chlorobenzyl)(methyl)amino)methyl)pyridin-2-yl)-1-oxoisoindolin-2-yl)piperidine-2,6-dione]
DC50 (Ikaros; [1]): > 10 µM | Dmax (Ikaros; [1]): 6% | DC50 (Helios; [1]): 3.26 µM | Dmax (Helios; [1]): 54%

CN(Cc1ccnc(-c2ccc3c(c2)CN(C2CCC(=O)NC2=O)C3=O)c1)Cc1cccc2cccnc12 (centres unmarked) [Example 155, 3-(5-(4-((methyl(quinolin-8-ylmethyl)amino)methyl)pyridin-2-yl)-1-oxoisoindolin-2-yl)piperidine-2,6-dione]
DC50 (Ikaros; [1]): > 10 µM | Dmax (Ikaros; [1]): 0% | DC50 (Helios; [1]): 1.58 µM | Dmax (Helios; [1]): 57%

From patent US11548870B2, “Compounds useful as inhibitors of helios protein” (Bristol-Myers Squibb Company, priority 2019, dated 2023)
